This is an account of results in article PMC7761779 (Polymers, 2020).

Details of data set [1]: method as in PMID 3958901. As to conditions: PEG 400/water mixtures; cadaver skin; infinite dose; cited from earlier work.
A short description of data set [2]: Dynamic Vapor Sorption (DVS) study of NIA solutions. The format is physicochemical. The settings on record: label = vehicle of a 5% (w/v) NIA solution; 5 μL; 32 ± 1 °C, 50 ± 2% RH; n = 3.
Description: Nitrogen was used as the carrier gas (200 mL/min). To monitor mass differences, 15 mm quartz glass pans connected to a microbalance accurate to 0.00001 mg were employed. Then, 5 μL solutions of 5% NIA (w/v) were added to the pans, and data were recorded using a Universal Analysis 2000 (TA Instrument, New Castle, DE, USA). Temperature and relative humidity (RH) were maintained over the course of the studies at 32 ± 1 °C and 50 ± 2% RH, respectively.
Details of data set [3]: method as in PMID 30529662. The settings on record: label = neat solvent of the NIA solution; finite dose; porcine skin; cited from earlier work.
On the set-up of data set [4]: method as in PMID 30529662. The settings on record: label = solvent; cited from earlier work.
Details of data set [5]: method as in PMID 30529662. As to conditions: label = neat solvent of the NIA solution; porcine skin; cited from earlier work.
On the set-up of data set [6]: method as in Suwanpidokkul et al. The settings on record: porcine skin, infinite dose, ref Suwanpidokkul et al., cited from earlier work.

Read-outs that look alike come from different tables or passages of the source.

`N=C(N)N/N=C/c1c(Cl)cccc1Cl` [guanabenz]: the “Flux trend with increasing PEG 400 concentration in the formulation” value in data set [1] is reported as “drop linearly”.
For the compound `O=C(O)CCc1nc(-c2ccccc2)c(-c2ccccc2)o1` [oxaprozin], the “Flux trend with increasing PEG 400 concentration in the formulation” value in data set [1] is on record as “drop linearly”.
For the compound `CC(O)CO` (centres unmarked) [PG, propylene glycol], in data set [2], the “Percentage of applied weight recovered at 24 h (DVS)” value (“Percentage” below) is 44.6 ± 0.02%. Also, the “Cumulative permeation of NIA at 24 h” value in data set [3] was 46.0 μg/cm^2.
With `CCOCCOCCO` [TC, Transcutol® P], the “Percentage” value in data set [2] is recorded as 17.6 ± 0.5%. Further, the “Solubility of NIA” value in data set [4] is 8.0 ± 0.6%. In data set [3], the “Cumulative permeation of NIA at 24 h” value is recorded as 95.1 μg/cm^2. In data set [5], the “Skin retention of NIA” value is reported as 16.4 ± 5.8%.
On to `Cc1cn([C@H]2C[C@H](N=[N+]=[N-])[C@@H](CO)O2)c(=O)[nH]c1=O` [zidovudine], for which the Flux is on record as 15.52 ± 0.60 μg/cm^2/h in data set [6] (PEG 400/water vehicle), 9.96 ± 0.63 μg/cm^2/h in data set [6] (ethanol/water vehicle) and 10.35 ± 0.67 μg/cm^2/h in data set [6] (isopropanol/water vehicle).
Turning to `CO[C@H]1CO[C@H]2[C@@H]1OC[C@H]2OC` [DMI, dimethyl isosorbide], the “Percentage” value in data set [2] amounted to 76.3 ± 0.1%. The “Cumulative permeation of NIA at 24 h” value in data set [3] was 103.6 μg/cm^2. Besides, the “Skin retention of NIA” value in data set [5] was 16.7 ± 6.3%.
